Reference: patent US20200155687A1, “METHODS OF TREATMENT USING AN A[…]” (Shire Pharmaceuticals Inc., priority 2017, published 2020)

Legend:
[1] = biological target: human recombinant dopamine transporter (Homo sapiens, UniProt Q01959); experiment: in vitro radioligand binding study, dopamine transporter; conditions: intact prodrug, up to 10 μM
Description: (§1) Therefore, there is no direct interaction by 1-homoarginine-d-amphetamine dihydrochloride with primary targets critical for the pharmacological effects of d-amphetamine.

[2] = system: α2-adrenergic receptor; experiment: confirmatory half maximal inhibitory concentration (IC50) assay; assay type: binding; conditions: after completion of confirmatory IC50 assay
Experimental: (§2) In a general side-effect profile panel using a wide range of receptors, transporters, ion channels, enzymes and other biological targets that could directly or indirectly influence dopaminergic or noradrenergic neurotransmission in the brain, initial results indicated some 1-homoarginine-d-amphetamine dihydrochloride activity at the α2-adrenergic receptor. However, after completion of a confirmatory half maximal inhibitory concentration (IC50) assay, it was determined that it is unlikely that 1-homoarginine-d-amphetamine dihydrochloride would cause any side-effects related to any of the common enzymes/receptors.

[3] = system: rats; experiment: motor activity in rats after PO, IV or IN administration; assay type: in vivo; conditions: rat; for increase in activity: IV; for activity levels compared to controls: single IN dose
Experimental: The pharmacodynamic properties of 1-homoarginine-d-amphetamine dihydrochloride in rats were evaluated and compared to lisdexamfetamine dimesylate and vehicle control after oral (PO), intravenous (IV) and intranasal (IN) administration.
The activity levels of rats after a single IN dose of 1-homoarginine-d-amphetamine dihydrochloride (5.25 mg/kg) was not increased when compared to controls.

[4] = system: α2-adrenergic receptor; experiment: general side-effect profile panel (receptors, transporters, ion channels, enzymes); assay type: binding
Experimental: as §2

[5] = biological target: human recombinant norepinephrine transporter (Homo sapiens, UniProt P23975); experiment: in vitro radioligand binding study, norepinephrine transporter; conditions: intact prodrug, up to 10 μM
human recombinant norepinephrine transporter, sequence (P23975 whole entry): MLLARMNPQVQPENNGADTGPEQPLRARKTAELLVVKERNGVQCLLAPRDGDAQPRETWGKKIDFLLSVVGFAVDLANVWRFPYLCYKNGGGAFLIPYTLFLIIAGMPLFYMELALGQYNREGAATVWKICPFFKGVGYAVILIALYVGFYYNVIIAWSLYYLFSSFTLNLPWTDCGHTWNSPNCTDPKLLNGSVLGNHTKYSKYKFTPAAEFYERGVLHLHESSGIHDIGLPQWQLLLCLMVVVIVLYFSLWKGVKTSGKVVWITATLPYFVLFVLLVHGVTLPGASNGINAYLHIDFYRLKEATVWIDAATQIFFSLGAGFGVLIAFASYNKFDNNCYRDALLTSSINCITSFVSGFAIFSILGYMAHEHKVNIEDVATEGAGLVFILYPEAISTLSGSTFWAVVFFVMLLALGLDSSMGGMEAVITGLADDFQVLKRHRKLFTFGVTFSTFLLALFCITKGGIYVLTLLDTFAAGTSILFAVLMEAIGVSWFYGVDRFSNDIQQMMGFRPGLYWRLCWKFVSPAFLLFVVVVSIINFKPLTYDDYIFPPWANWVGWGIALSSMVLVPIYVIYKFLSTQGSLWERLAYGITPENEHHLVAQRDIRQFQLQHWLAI
Description: as §1

human recombinant dopamine transporter, sequence (Q01959 whole entry): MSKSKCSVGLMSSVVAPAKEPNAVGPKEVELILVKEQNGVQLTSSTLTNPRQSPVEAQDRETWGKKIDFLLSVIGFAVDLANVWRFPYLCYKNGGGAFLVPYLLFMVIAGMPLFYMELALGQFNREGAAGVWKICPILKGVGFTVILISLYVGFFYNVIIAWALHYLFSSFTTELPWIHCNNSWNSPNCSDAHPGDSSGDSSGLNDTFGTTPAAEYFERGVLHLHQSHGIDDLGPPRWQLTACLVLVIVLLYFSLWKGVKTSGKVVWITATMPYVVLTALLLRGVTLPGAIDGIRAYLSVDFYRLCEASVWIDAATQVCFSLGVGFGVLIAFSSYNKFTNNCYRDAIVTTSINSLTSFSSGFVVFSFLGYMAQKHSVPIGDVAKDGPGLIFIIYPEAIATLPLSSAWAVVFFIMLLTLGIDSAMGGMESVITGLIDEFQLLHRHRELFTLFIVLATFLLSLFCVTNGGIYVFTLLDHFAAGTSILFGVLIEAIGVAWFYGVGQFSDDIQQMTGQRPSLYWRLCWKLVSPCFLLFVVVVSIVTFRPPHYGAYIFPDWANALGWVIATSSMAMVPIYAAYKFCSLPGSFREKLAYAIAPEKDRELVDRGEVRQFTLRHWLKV

Molecule	activity at the dopamine transporter site [1]	likelihood of side-effects related to any of the common enzymes/receptors [2]	increase in activity ([3]; 5.25 mg/kg)	motor activity compared to the vehicle control group ([3]; PO, 4.37 mg/kg)	activity levels versus lisdexamfetamine (4.21 mg/kg) comparator group ([3]; PO, 4.37 mg/kg, initial three hours of the study)	activity levels compared to controls ([3]; 5.25 mg/kg)	activity at the α2-adrenergic receptor (initial results) [4]	activity at the norepinephrine transporter site [5]	increase in activity ([3]; 5.05 mg/kg) [%]	activity levels compared to controls ([3]; 5.05 mg/kg)
C[C@@H](Cc1ccccc1)NC(=O)[C@@H](N)CCCCNC(=N)N.Cl [1-homoarginine-d-amphetamine dihydrochloride]	no significant activity	unlikely	approximately 15%	induced an increase in motor activity	in general lower	not increased	some	no significant activity	–	–
lisdexamfetamine dimesylate [reference compound]	–	–	–	–	–	–	–	–	60	A similar result
